Here are results for 3 compounds from ChEMBL document CHEMBL1128848, “The asymmetric synthesis of both enantiomers of eliprodil” (1995).

The assay deals with Rattus norvegicus. In words: Neuroprotective activity (1 mg/kg) administered intravenously was evaluated in rat model of focal cerebral ischemia induced by permanent occlusion of the middle cerebral artery(MCA). It counts as functional.
Take `O[C@@H](CN1CCC(Cc2ccc(F)cc2)CC1)c1ccc(Cl)cc1`: the Infarct volume amounted to 37.7 mm³.

`O[C@H](CN1CCC(Cc2ccc(F)cc2)CC1)c1ccc(Cl)cc1` registered an Infarct volume of 58.9 mm³.

Consider `OC(CN1CCC(Cc2ccc(F)cc2)CC1)c1ccc(Cl)cc1` (racemic) [ELIPRODIL], for which the Infarct volume was found to be 33.3 mm³.
